# Experimental data reported in US10208065B2, “Crystalline free bases of C-Met inhibitor or crystalline acid salts thereof, and preparation methods and uses thereof” (Jiangsu Hansoh Pharmaceutical Group Co., Ltd., priority 2014, dated 2019).
# Structures can show the parent of a compound that is named as a salt.
# Assays:
# [1] = Solubility in simulated biological media (37° C., HPLC); assay type: physicochemical; conditions: for Solubility compared with the solubility of the free base: simulated biological media
# Procedure: (§1) Procedure: About 10 mg of amorphous free base was weighed and placed in a 2 mL glass vial. Then, 1 mL of simulated biological media (simulated artificial gastric juice, simulated artificial intestinal juice-fasting, and simulated artificial intestinal juice-satiety), and a magnetic stirrer were added, and then the vial was sealed. The mixture was magnetically stirred at 37° C. and about 0.4 mL of the sample was taken at different time points. The mixture was filtered with a centrifuge tube (pore size of filter membrane: 0.45 μm), the filtrate was taken and the content of the compound of formula I therein was analyzed by HPLC.
# as §1, with “crystal form I of” for “amorphous”, “vial,” for “vial. Then,”, “was” for “were”, “added,” for “added, and”
# as §1, with “crystal form of the” for “amorphous”, “and” for “and then”
# as §1, with “crystal form I of a phosphate salt” for “amorphous free base”, “(simulated is” for “(simulated”
# as §1, with “crystal form III of the mesylate salt” for “amorphous free base”
# as §1, with “crystal form III of the 1,5-naphthalenedisulfonate salt” for “amorphous free base”
# [2] = Bioavailability in dog after single administration by gavage; assay type: in vivo; conditions: 5 mg/kg
# Procedure: It could be seen from FIG. 21 that the bioavailability of crystal form III of the mesylate salt was increased by 5 times in comparison to form I of the free base. Experimental conditions: the experimental animal was a dog, a dose of 5 mg/kg, single administration by gavage. Therefore, the salt-form compound has a significant improvement in comparison to the free base.
# [3] = Accelerated stability test (HPLC purity, crystal form); assay type: physicochemical; conditions: for Purity ratio: purity after test / initial purity
# Procedure: The accelerated stability test of crystal form III of the mesylate salt was used for researching the physical and chemical stability of crystal form III of the mesylate salt. Specific procedure: After the sample was placed in an accelerated stability for a sufficient time under the conditions shown in the table below, the sample was taken out and dissolved in the mobile phase, and then its purity was determined by HPLC. Before the start of the accelerated stability test, the purity of the initial sample was determined by HPLC. The ratio of the purity of the sample after the accelerated stability test to the purity of the initial sample was used as a stability criterion. If the ratio was less than 95% purity, the sample was considered as unstable.
# [4] = simulated artificial gastric juice
# [5] = simulated artificial intestinal juice-fasting
# [6] = simulated artificial intestinal juice-satiety
# [7] = 40° C./75% relative humidity, 1 week
"Solubility (1 hour) [1, 4]","Solubility (4 hours) [1, 4]","Solubility (22 hours) [1, 4]","Solubility (1 hour) [1, 5]","Solubility (4 hours) [1, 5]","Solubility (22 hours) [1, 5]","Solubility (1 hour) [1, 6]","Solubility (4 hours) [1, 6]","Solubility (22 hours) [1, 6]",Solubility compared with the solubility of the free base [1],Increase of bioavailability in comparison to form I of the free base [2],"Crystal transformation after the accelerated stability test [3, 7]","Purity after the accelerated stability test ([3]; 40° C./75% relative humidity, 1 week, initial purity 98.2%)","Purity ratio [3, 7]",Physical and chemical stability ([3]; 80° C. 1 day and 40° C./75% relative humidity 1 week),"Crystal transformation after the accelerated stability test ([3]; 80° C., 1 day)","Purity after the accelerated stability test ([3]; 80° C., 1 day, initial purity 99.9%)","Purity ratio ([3]; 80° C., 1 day)",SMILES
0.211 mg/mL,0.200 mg/mL,0.0125 mg/mL,0.005 mg/mL,0.005 mg/mL,0.005 mg/mL,0.020 mg/mL,0.014 mg/mL,0.010 mg/mL,much greater,5 times,No,98.8%,100.6%,good physical and chemical stability,No,99.7%,99.8%,"CN1C(=O)COc2c1cnc1ccc(Sc3nnc4c(F)cc(-c5cnn(C)c5)cn34)cc21 [Crystal form III of mesylate, 9-((8-fluoro-6-(1-methyl-1H-pyrazol-4-yl)-[1,2,4]triazolo[4,3-a]pyridin-3-yl)thio)-4-methyl-2H-[1,4]oxazino[3,2-c]quinolin-3(4H)-one]"
0.182 mg/mL,0.027 mg/mL,0.030 mg/mL,0.012 mg/mL,0.010 mg/mL,0.005 mg/mL,0.048 mg/mL,0.033 mg/mL,0.013 mg/mL,much greater,,,,,,,,,"CN1C(=O)COc2c1cnc1ccc(Sc3nnc4c(F)cc(-c5cnn(C)c5)cn34)cc21 [Crystal form III of the 1,5-naphthalenedisulfonate salt] [9-((8-fluoro-6-(1-methyl-1H-pyrazol-4-yl)-[1,2,4]triazolo[4,3-a]pyridin-3-yl)thio)-4-methyl-2H-[1,4]oxazino[3,2-c]quinolin-3(4H)-one]"

# Second part, the compound before the results:
SMILES,"Solubility (1 hour) [1, 4]","Solubility (4 hours) [1, 4]","Solubility (22 hours) [1, 4]","Solubility (1 hour) [1, 5]","Solubility (4 hours) [1, 5]","Solubility (22 hours) [1, 5]","Solubility (1 hour) [1, 6]","Solubility (4 hours) [1, 6]","Solubility (22 hours) [1, 6]",Solubility compared with the solubility of the free base [1],Increase of bioavailability in comparison to form I of the free base [2],"Crystal transformation after the accelerated stability test [3, 7]","Purity after the accelerated stability test ([3]; 40° C./75% relative humidity, 1 week, initial purity 98.2%)","Purity ratio [3, 7]",Physical and chemical stability ([3]; 80° C. 1 day and 40° C./75% relative humidity 1 week),"Crystal transformation after the accelerated stability test ([3]; 80° C., 1 day)","Purity after the accelerated stability test ([3]; 80° C., 1 day, initial purity 99.9%)","Purity ratio ([3]; 80° C., 1 day)"
"CN1C(=O)COc2c1cnc1ccc(Sc3nnc4c(F)cc(-c5cnn(C)c5)cn34)cc21 [Amorphous free base, 9-((8-fluoro-6-(1-methyl-1H-pyrazol-4-yl)-[1,2,4]triazolo[4,3-a]pyridin-3-yl)thio)-4-methyl-2H-[1,4]oxazino[3,2-c]quinolin-3(4H)-one]",0.011 mg/mL,0.009 mg/mL,0.009 mg/mL,0.002 mg/mL,0.002 mg/mL,0.002 mg/mL,0.003 mg/mL,0.002 mg/mL,0.002 mg/mL,,,,,,,,,
"CN1C(=O)COc2c1cnc1ccc(Sc3nnc4c(F)cc(-c5cnn(C)c5)cn34)cc21 [Crystal form I of free base, 9-((8-fluoro-6-(1-methyl-1H-pyrazol-4-yl)-[1,2,4]triazolo[4,3-a]pyridin-3-yl)thio)-4-methyl-2H-[1,4]oxazino[3,2-c]quinolin-3(4H)-one]",0.018 mg/mL,0.019 mg/mL,0.019 mg/mL,0.001 mg/mL,0.001 mg/mL,0.002 mg/mL,0.004 mg/mL,0.004 mg/mL,0.004 mg/mL,,,,,,,,,
"CN1C(=O)COc2c1cnc1ccc(Sc3nnc4c(F)cc(-c5cnn(C)c5)cn34)cc21 [Crystal form I of phosphate, 9-((8-fluoro-6-(1-methyl-1H-pyrazol-4-yl)-[1,2,4]triazolo[4,3-a]pyridin-3-yl)thio)-4-methyl-2H-[1,4]oxazino[3,2-c]quinolin-3(4H)-one]",0.128 mg/mL,0.135 mg/mL,0.135 mg/mL,0.008 mg/mL,0.004 mg/mL,0.003 mg/mL,0.032 mg/mL,0.033 mg/mL,0.027 mg/mL,much greater,,,,,,,,
"CN1C(=O)COc2c1cnc1ccc(Sc3nnc4c(F)cc(-c5cnn(C)c5)cn34)cc21 [Crystal form III of free base, 9-((8-fluoro-6-(1-methyl-1H-pyrazol-4-yl)-[1,2,4]triazolo[4,3-a]pyridin-3-yl)thio)-4-methyl-2H-[1,4]oxazino[3,2-c]quinolin-3(4H)-one]",0.040 mg/mL,0.043 mg/mL,0.043 mg/mL,0.004 mg/mL,0.004 mg/mL,0.004 mg/mL,0.011 mg/mL,0.011 mg/mL,0.010 mg/mL,,,,,,,,,
